Data on five compounds can be found in patent US10065990B2, “Cyclic peptide compound, and preparation method, pharmaceutical composition and use thereof” (HANGZHOU GUANYU BIO-MEDICAL CO., LTD, priority 2013, dated 2018).

For test [1], the system named is A549 (human lung cancer cells). As to the kind of experiment: MTT cancer cell growth inhibition. The class given is cell-based. As to conditions: Homo sapiens, A549, 72 h, MTT, 72 hours incubation, read-out: GI50 A54. A digest of the protocol: (§1)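 Tumour cells in 10% FBS-supplemented DMEM or RPMI 1640 are plated at 1500 per well, dosed next day with compound (10^−5 through 10^−10 M, final) and kept 72 h. MTT is added for 4 h; dissolved formazan is measured at 570 nm and GI50 determined.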

Test [2] concerns MCF-7 (human breast cancer cells). As to the kind of experiment: MTT cancer cell growth inhibition. In kind it is cell-based. The note with it: Homo sapiens, MCF7, 72 h, 72 hours incubation, read-out: GI50 MCF. A digest of the protocol:
as §1

For test [3], the system named is HCC827 (human non-small cell lung cancer cells). As to the kind of experiment: MTT cancer cell growth inhibition. The class given is cell-based. As to conditions: Homo sapiens, HCC827, 72 h, MTT, 72 hours incubation, HCC827 cells; read-out: GI50 HCC827. An outline of the steps: as §1
The subject of test [4] is N-87 (human gastric cancer cells). As to the kind of experiment: MTT cancer cell growth inhibition. In kind it is cell-based. The note with it: Homo sapiens, 72 h, MTT, 72 hours incubation, N-87 cells; read-out: GI50 N-87. A digest of the protocol: as §1
In test [5] the test system is Bel-7402 (human hepatoma cells). Briefly: MTT cancer cell growth inhibition. In kind it is cell-based. The note with it: Homo sapiens, Bel-7402, 72 h, MTT, 72 hours incubation, Bel-7402 cells; read-out: GI50 Bel-7402. An outline of the steps: as §1
Test [6] has as its system BGC-823 (human gastric cancer cells). As to the kind of experiment: MTT cancer cell growth inhibition. The class given is cell-based. As to conditions: Homo sapiens, BGC-823, 72 h, MTT, 72 hours incubation, read-out: GI50 BG. A digest of the protocol: as §1
For test [7], the system named is KBM-5 (human chronic myelogenous leukemia). Briefly: MTT cancer cell growth inhibition. In kind it is cell-based. As to conditions: Homo sapiens, KBM5, 72 h, MTT, 72 hours incubation, KBM-5 cells; read-out: GI50 KBM-5. A digest of the protocol: as §1
Test [8] concerns MOLT-4 (human acute lymphoblastic leukemia cells). Briefly: MTT cancer cell growth inhibition. The note with it: Homo sapiens, MOLT-4, 72 h, MTT, 72 hours incubation, read-out: GI50 Mol. In kind it is cell-based. A digest of the protocol:
as §1

For test [9], the system named is HT1080 (human fibrosarcoma cells). Briefly: MTT cancer cell growth inhibition. In kind it is cell-based. The note with it: Homo sapiens, HT-1080, 72 h, MTT, 72 hours incubation, read-out: GI50 HT1. An outline of the steps: as §1
Test [10] has as its system K562 (human leukemia cells). As to the kind of experiment: MTT cancer cell growth inhibition. In kind it is cell-based. As to conditions: Homo sapiens, K562, 72 h, MTT, 72 hours incubation, K562 cells; read-out: GI50 K562. A digest of the protocol:
as §1

Test [11] has as its system SGC-7901 (human gastric cancer cells). Briefly: MTT cancer cell growth inhibition. As to conditions: Homo sapiens, SGC-7901, 72 h, MTT, 72 hours incubation, SGC-7901 cells; read-out: GI50 SGC-7901. In kind it is cell-based. An outline of the steps: as §1
The test system of test [12] is H1975 (non-small cell lung adenocarcinoma). As to the kind of experiment: MTT cancer cell growth inhibition. In kind it is cell-based. As to conditions: Homo sapiens, NCI-H1975, 72 h, MTT, 72 hours incubation, H1975 cells; read-out: GI50 H1975. An outline of the steps:
as §1

The test system of test [13] is KBM5-T315I (human chronic myelogenous leukemia). Briefly: MTT cancer cell growth inhibition. As to conditions: Homo sapiens, 72 h, MTT, 72 hours incubation, KBM5-T315I cells; read-out: GI50 KBM5-T315I. The class given is cell-based. A digest of the protocol:
as §1

Test [14] has as its system MDA-MB-231 (breast cancer cells). Briefly: MTT cancer cell growth inhibition. In kind it is cell-based. As to conditions: Homo sapiens, MDA-MB-231, 72 h, read-out: GI50 MDA-MB-231, MTT, 72 hours incubation, MDA-MB-231 cells. An outline of the steps:
as §1

The test system of test [15] is Huh-7 (human hepatoma cells). As to the kind of experiment: MTT cancer cell growth inhibition. In kind it is cell-based. The note with it: Homo sapiens, Huh-7, 72 h, MTT, 72 hours incubation, Huh-7 cells; read-out: GI50 Huh-7. An outline of the steps:
as §1

The subject of test [16] is lncap (prostate cancer cells). Briefly: MTT cancer cell growth inhibition. The class given is cell-based. The note with it: Homo sapiens, LNCaP, 72 h, MTT, 72 hours incubation, read-out: GI50 lnca. An outline of the steps:
as §1

In test [17] the test system is DU145 (human prostate cancer cells). Briefly: MTT cancer cell growth inhibition. The class given is cell-based. As to conditions: Homo sapiens, DU-145, 72 h, MTT, 72 hours incubation, read-out: GI50 Du1. A digest of the protocol: as §1
In test [18] the test system is PANC-1 (Pac-1, human pancreatic cancer cells). Briefly: MTT cancer cell growth inhibition. The class given is cell-based. As to conditions: Homo sapiens, PANC-1, 72 h, MTT, 72 hours incubation, read-out: GI50 PAN. A digest of the protocol: as §1
Test [19] deals with Hela (human cervical cancer cells). Briefly: MTT cancer cell growth inhibition. The class given is cell-based. The note with it: Homo sapiens, HeLa, 72 h, MTT, 72 hours incubation, read-out: GI50 Hela. A digest of the protocol: as §1
The subject of test [20] is U937 (human leukemia cells). As to the kind of experiment: MTT cancer cell growth inhibition. In kind it is cell-based. As to conditions: Homo sapiens, U-937, 72 h, MTT, 72 hours incubation, read-out: GI50 U93. An outline of the steps:
as §1

A further test deals with T1, HDAC7 (Homo sapiens, UniProt Q8WUI4).
T1 sequence (Q8WUI4 1-952): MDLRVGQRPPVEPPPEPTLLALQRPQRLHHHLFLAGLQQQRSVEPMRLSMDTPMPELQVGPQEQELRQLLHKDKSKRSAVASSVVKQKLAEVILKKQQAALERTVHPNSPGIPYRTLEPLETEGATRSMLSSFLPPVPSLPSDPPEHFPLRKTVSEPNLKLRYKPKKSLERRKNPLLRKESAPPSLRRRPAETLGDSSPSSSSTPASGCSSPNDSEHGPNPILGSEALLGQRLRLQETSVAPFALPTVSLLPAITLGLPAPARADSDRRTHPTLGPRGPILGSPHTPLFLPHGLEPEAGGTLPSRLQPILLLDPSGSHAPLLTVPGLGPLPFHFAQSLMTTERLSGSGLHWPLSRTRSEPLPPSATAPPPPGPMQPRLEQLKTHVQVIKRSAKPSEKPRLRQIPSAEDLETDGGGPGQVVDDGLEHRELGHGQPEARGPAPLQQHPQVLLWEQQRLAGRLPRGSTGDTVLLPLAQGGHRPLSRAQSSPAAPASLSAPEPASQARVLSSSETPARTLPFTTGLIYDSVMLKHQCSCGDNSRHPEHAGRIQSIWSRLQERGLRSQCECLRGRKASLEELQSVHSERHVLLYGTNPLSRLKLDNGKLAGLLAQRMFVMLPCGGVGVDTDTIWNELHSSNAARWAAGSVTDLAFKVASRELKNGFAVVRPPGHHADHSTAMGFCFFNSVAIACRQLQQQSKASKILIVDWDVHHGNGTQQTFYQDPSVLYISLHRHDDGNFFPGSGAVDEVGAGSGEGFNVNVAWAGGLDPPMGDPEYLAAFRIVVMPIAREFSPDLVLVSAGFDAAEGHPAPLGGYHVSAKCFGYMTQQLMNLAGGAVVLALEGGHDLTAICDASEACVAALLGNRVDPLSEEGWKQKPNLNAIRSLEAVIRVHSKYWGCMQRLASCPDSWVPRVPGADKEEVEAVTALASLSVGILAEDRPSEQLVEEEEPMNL
As to the kind of experiment: HDAC biochemical activity measurement (fluorescent substrate deacetylation).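 For all read-outs here: fluorogenic deacetylation assay using acetyl-lysine substrate at 20 µM, enzyme and compound incubated 30 min at 37 °C, then developer added, fluorescence read at 360/460 nm.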 The note with it: for IC50 HDAC7: 37° C. 30 minutes.

Each structure is given as a SMILES string. Where two headings read alike, the source gives them in different places.

As to `C/C=C1\NC(=O)c2cc(SCC)cc(n2)CNC(=O)C[C@@H](/C=C/CCSC(=O)CCCCCC)OC(=O)[C@H](C(C)C)NC1=O` [Compound 251], the 50% growth inhibitory concentration (GI50) in [1] (A549 cells) was 60 nM; in test [2] (MCF-7 cells), 40 nM; in test [3], 53 nM; in [4], 36 nM; in test [5], 42 nM; in test [6] (BGC-823 cells), 30 nM. Moreover, the GI50 in test [7] amounted to 66 nM; in test [8] (MOLT-4 cells), 70 nM; in test [9] (HT1080 cells) it was 20 nM; in test [10], 35 nM; in test [11], 49 nM; in test [12], 63 nM. The 50% growth inhibitory concentration (GI50) in [13] was 81 nM; in test [14] it was 38 nM; in test [15], 55 nM; in test [16] (lncap cells) it was 90 nM; in test [17] (DU145 cells) it was 20 nM; in [18] (PANC-1 cells), 50 nM. For the same compound, the 50% growth inhibitory concentration (GI50) in test [19] (Hela cells) is 20 nM; in [20] (U937 cells) it was 30 nM. On HDAC7, the “IC50 (μM) HDAC7” value was “no activity”.
Regarding `C/C=C1\NC(=O)c2cc(SC)cc(n2)CNC(=O)C[C@@H](/C=C/CCSC(=O)CCCCCCC)OC(=O)[C@H](Cc2ccccc2)NC1=O` [Compound 190], the concentration for 50% growth inhibition (GI50) in test [1] (A549 cells) came out at 20 nM; in test [2] (MCF-7 cells), 30 nM; in [3], 56 nM; in [4] it was 48 nM; in [5], 28 nM; in test [6] (BGC-823 cells), 50 nM. The GI50 worked out at 57 nM in test [7]; 70 nM in test [8] (MOLT-4 cells); 20 nM in test [9] (HT1080 cells); 63 nM in [10]; 86 nM in test [11]; 23 nM in test [12]. For the same compound, the 50% growth inhibitory concentration (GI50) is 17 nM in test [13]; 67 nM in test [14]; 75 nM in test [15]; 30 nM in test [16] (lncap cells); 20 nM in test [17] (DU145 cells); 60 nM in test [18] (PANC-1 cells). The figures for the GI50 in test [19] (Hela cells) and in test [20] (U937 cells) were 60 nM and 50 nM, respectively. The “IC50 HDAC7” value against HDAC7 was “no activity”.
Consider `C/C=C1\NC(=O)c2nc(ccc2F)CNC(=O)C[C@@H](/C=C/CCS)OC(=O)[C@H](CC)NC1=O` [Compound 109], for which the 50% growth inhibitory concentration (GI50) in test [1] stood at 50 nM; in test [2] it was 20 nM; in [3], 51 nM; in test [4] it was 61 nM; in [5] it was 56 nM; in test [6], 20 nM. In addition, the GI50 in test [7] was found to be 82 nM; in [8], 30 nM; in test [9], 70 nM; in [10] it was 28 nM; in test [11] it was 42 nM; in [12], 31 nM. In addition, the GI50 in test [13] was 71 nM; in test [14], 126 nM; in test [15], 46 nM; in [16], 30 nM; in [17], 40 nM; in test [18], 70 nM. Moreover, the figures for the GI50 in test [19] and in test [20] were 70 nM and 40 nM, respectively. Further, on HDAC7, the “IC50 HDAC7” value was “no activity”.
For the compound `C/C=C1\NC(=O)c2nc(ccc2F)CNC(=O)C[C@@H](/C=C/CCSC(C)=O)OC(=O)[C@@H](C)NC1=O` [Compound 100], the 50% growth inhibitory concentration (GI50) in [1] stood at 50 nM; in [2] it was 20 nM; in [3], 17 nM; in test [4] it was 32 nM; in test [5], 71 nM; in [6], 20 nM. Also, the concentration for 50% growth inhibition (GI50) in [7] was determined as 35 nM; in test [8], 30 nM; in test [9], 90 nM; in [10], 34 nM; in [11], 57 nM; in test [12], 53 nM. The GI50 in test [13] was 31 nM; in test [14] it was 78 nM; in test [15], 27 nM; in test [16], 30 nM; in test [17], 20 nM; in test [18], 90 nM. The figures for the GI50 in test [19] and in [20] were 70 nM and 60 nM, respectively. In addition, the “IC50 HDAC7” value against HDAC7 is recorded as “no activity”.
Turning to `C/C=C1\NC(=O)c2cc(F)cc(n2)CNC(=O)C[C@@H](/C=C/CCS)OC(=O)[C@H](C)NC1=O` [Compound 113], the GI50 is 60 nM in test [1]; 50 nM in [2]; 48 nM in test [3]; 42 nM in [4]; 34 nM in [5]; 70 nM in [6]. Besides, the concentration for 50% growth inhibition (GI50) in [7] was found to be 36 nM; in test [8], 100 nM; in test [9], 100 nM; in test [10], 47 nM; in test [11] it was 95 nM; in [12] it was 24 nM. For the same compound, the GI50 is 51 nM in test [13]; 31 nM in test [14]; 21 nM in [15]; 80 nM in test [16]; 50 nM in [17]; 70 nM in test [18]. For the same compound, the figures for the GI50 in [19] and in test [20] were 80 nM and 60 nM, respectively. Moreover, at HDAC7, the “IC50 HDAC7” value is listed as “no activity”.
